Experimental data taken from patent publication US20240108740A1, “THERAPEUTIC COMPOSITIONS INCLUDING SPN10 AND USES THEREOF” (Stealth BioTherapeutics Inc., priority 2022, published 2024).
Residues, ends and D or L forms follow the SMILES beside them.

What was measured:
Sprague Dawley rats = test: Example 54: metabolic syndrome (HFD/STZ); assay type: in vivo, rat; settings: 10 weeks of administration
Procedure: Sprague Dawley rats will be fed with a high-fat diet (HFD) for 6 weeks and then administered a single dose of STZ (30 mg/kg). The rats will be maintained on HFD until 14 weeks after STZ administration. Control subjects fed normal rat chow (NRC) for 6 weeks will be administered citrate buffer without STZ. After 5 months, diabetic subjects will be treated with peptide conjugates (10 mg/kg, 3 mg/kg, or 1 mg/kg s.c.q.d. (subcutaneously, once daily)), aromatic-cationic peptides (an equivalent molar dose of aromatic-cationic peptide based on the concentration of the aromatic-cationic peptide administered in the peptide conjugate group), SPN10(s) (an equivalent molar dose of SPN10 based on the concentration of SPN10 administered in the peptide conjugate group), SPN10(s) in combination with aromatic-cationic peptides (e.g., an equivalent molar dose of SPN10 based on the concentration of SPN10 administered in the peptide conjugate treatment group and an equivalent molar dose of aromatic-cationic peptide based on the concentration of aromatic-cationic peptide administered in the peptide conjugate treatment group) or control vehicle (saline) 5 days per week for 10 weeks. The study groups will be as follows: • Group A: HFD/STZ+peptide conjugates 10 mg/kg s.c.q.d. (Mon-Fri.), n=12; • Group B: HFD/STZ+peptide conjugates 3 mg/kg s.c.q.d. […]

[1] = tested on: Human low density lipoprotein (LDL); test: Example 18: LDL oxidation (conjugated dienes at 234 nm); assay type: biochemical; settings: 10 mM, 5 hours at 37° C.
Procedure: Human low density lipoprotein (LDL) will be prepared fresh from stored plasma. LDL oxidation will be induced catalytically by the addition of 10 mM […], and the formation of conjugated dienes will be monitored at 234 nm for 5 hours at 37° C. (B. Moosmann and C. Behl, Mol. Pharmacol. 61:260-268 (2002).

Sprague-Dawley rats = test: Example 42: CCl4-induced chronic nephrotoxicity; assay type: in vivo, rat
Text: […]
Renal Histology: Kidneys will be fixed in 10% neutral-buffered formalin and embedded in paraffin wax for sectioning. Three-micron sections will be stained with hematoxylin-eosin (H&E) and analyzed by light microscopy by a certified pathologist.

N=C(N)NCCC[C@H](NC(=O)[C@@H](N)Cc1c[nH]c2ccccc12)C(=O)N[C@@H](Cc1c[nH]c2ccccc12)C(=O)N[C@@H](CCCCN)C(N)=O [SPN10, H-L-Trp-L-Arg-L-Trp-L-Lys-NH2] (H-WRWK-NH2) was tested, and the “blood triglyceride level of HFD/STZ rats” value (Sprague Dawley rats) was “reduced to normal levels”, the “rate of LDL oxidation” value [1] was “dose-dependently inhibit the rate of LDL oxidation” and the “histopathological changes (H&E) compared to untreated control animals of Group (1)” value (Sprague-Dawley rats; rat, in vivo) was “no significant histopathological changes”. For the same molecule, the “protection of renal tubules from CCl4 nephrotoxicity” value (Sprague-Dawley rats; s.c. 5 days per week, 7 weeks) was “protect renal tubules from CCl4 nephrotoxicity”.
